This passage reports mortality, percent control (mortality, anti-feedant effect or growth inhibition) and percent effect (mortality or growth inhibition) results from patent US20240108006A1, “PESTICIDALLY ACTIVE HETEROAROMATIC COMPOUNDS” (SYNGENTA CROP PROTECTION AG, priority 2021, published 2024).

Holding throughout (assay type): in vivo
In one assay the test system is Myzus persicae. Nature of the assay: Example B7: Myzus persicae (green peach aphid), intrinsic activity, sucrose solution 24-well. The conditions noted are these: 120 h, read-out: control (mortality). An excerpt: Example B7: Myzus persicae (Green Peach Aphid). Intrinsic Activity
Test compounds prepared from 10,000 ppm DMSO stock solutions were applied by pipette into 24-well microtiter plates and mixed with sucrose solution. The plates were closed with a stretched Parafilm. A plastic stencil with 24 holes was placed onto the plate and infested pea seedlings were placed directly on the Parafilm. The infested plate was closed with a gel blotting paper and another plastic stencil and then turned upside down. The samples were assessed for mortality 5 days after infestation.
The following compounds gave an effect of at least 80% control at an application rate of 12.5 ppm: […]

The test system of the next assay is Chilo suppressalis. Nature of the assay: Example B1: Chilo suppressalis (striped rice stemborer), artificial diet, L2 larvae. The conditions noted are these: 144 h, application rate of 200 ppm, 6 days after infestation, read-out: control in at least one of the three categories (mortality, anti-feedant effect, or growth inhibition). The essentials: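 Artificial diet was treated with aqueous test solutions made from 10,000 ppm DMSO stocks, dried, then infested with L2 larvae (6-8 per well). Mortality, anti-feeding effect and growth inhibition were scored against untreated samples 6 days after infestation, and control was counted when any category exceeded untreated.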

A further assay has as its system Spodoptera littoralis. The assay is described as follows: Example B9: Spodoptera littoralis (Egyptian cotton leaf worm), cotton leaf discs, L1 larvae. The conditions noted are these: foliar, 72 h, application rate of 200 ppm, 3 days after infestation, read-out: control in at least one of the three categories (mortality, anti-feedant effect, or growth inhibition). The method, boiled down: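 Cotton leaf discs on agar sprayed with aqueous test solutions from 10,000 ppm DMSO stocks, dried, then infested with five L1 larvae. Mortality, anti-feeding and growth inhibition scored against untreated samples 3 days after infestation.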

Another assay relates to Plutella xylostella. The assay is described as follows: Example B8: Plutella xylostella (diamond back moth), artificial diet 24-well, eggs. The conditions noted are these: 192 h, application rate of 200 ppm, 8 days after infestation, read-out: effect in at least one of the two categories (mortality or growth inhibition). The essentials:
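Artificial diet in 24-well plates treated with aqueous dilutions of DMSO stock (10,000 ppm stock) and dried, then infested with Plutella eggs. Mortality and growth inhibition scored versus untreated samples 8 days after infestation.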

The mark [1] stands for this setting: application rate of 12.5 ppm, 5 days after infestation.

Molecules are shown by their SMILES. Where two headings read alike, the source gives them in different places.

Turning to `C[C@H](NC(=O)Nc1ccc(C#N)cc1Br)c1ncnn1-c1ncccn1` [Example P30, 1-(2-bromo-4-cyano-phenyl)-3-[(1S)-1-(2-pyrimidin-2-yl-1,2,4-triazol-3-yl)ethyl]urea], the mortality (commonly the share of the test organisms that died) at 12.5 ppm with Myzus persicae (setting [1]) is no less than 80%. Also, in the assay with Chilo suppressalis, the percent control (mortality, anti-feedant effect or growth inhibition) at 200 ppm was no less than 80%.
As to `C[C@H](NC(=O)Nc1cc2c(cc1Br)OC(F)(F)O2)c1ncnn1-c1ncccn1` [Example P79, 1-(6-bromo-2,2-difluoro-1,3-benzodioxol-5-yl)-3-[(1S)-1-(2-pyrimidin-2-yl-1,2,4-triazol-3-yl)ethyl]urea], the mortality at 12.5 ppm with Myzus persicae (setting [1]) is no less than 80%. In addition, the percent control (mortality, anti-feedant effect or growth inhibition) at 200 ppm in the assay on Spodoptera littoralis and in the assay with Chilo suppressalis was no less than 80% throughout. Further, the percent effect (mortality or growth inhibition) at 200 ppm with Plutella xylostella was no less than 80%.
Take `C[C@H](NC(=O)Nc1ccc(F)cc1S(C)(=O)=O)c1ncnn1-c1ncccn1` [Example P99, 1-(4-fluoro-2-methylsulfonyl-phenyl)-3-[(1S)-1-(2-pyrimidin-2-yl-1,2,4-triazol-3-yl)ethyl]urea]: the mortality at 12.5 ppm with Myzus persicae (setting [1]) is no less than 80%.
Turning to `C[C@H](NC(=O)Nc1ccc(C(F)(F)F)cc1)c1ncnn1-c1ncccn1` [Example P122, 1-[(1S)-1-(2-pyrimidin-2-yl-1,2,4-triazol-3-yl)ethyl]-3-[4-(trifluoromethyl)phenyl]urea], in the assay on Myzus persicae (setting [1]), the mortality at 12.5 ppm was no less than 80%.
As to `C[C@H](NC(=O)Nc1cc(Oc2ncccn2)c(Cl)cc1Cl)c1ncnn1-c1ncccn1` [Example P138, 1-(2,4-dichloro-5-pyrimidin-2-yloxy-phenyl)-3-[(1S)-1-(2-pyrimidin-2-yl-1,2,4-triazol-3-yl)ethyl]urea], the mortality at 12.5 ppm in the assay on Myzus persicae (setting [1]) is no less than 80%. The percent effect (mortality or growth inhibition) at 200 ppm in the assay on Plutella xylostella is no less than 80%. Besides, the percent control (mortality, anti-feedant effect or growth inhibition) at 200 ppm in the assay with Chilo suppressalis was no less than 80%.
`C[C@H](NC(=O)Nc1cc(Cl)c(C#N)cc1Cl)c1ncnn1-c1ncccn1` [Example P179, 1-(2,5-dichloro-4-cyano-phenyl)-3-[(1S)-1-(2-pyrimidin-2-yl-1,2,4-triazol-3-yl)ethyl]urea]: the mortality at 12.5 ppm in the assay on Myzus persicae was no less than 80%.
Turning to `COC(=O)c1cc(NC(=O)N[C@@H](C)c2ncnn2-c2ncccn2)c(C(F)(F)F)cc1Cl` [Example P210, methyl 2-chloro-5-[[(1S)-1-(2-pyrimidin-2-yl-1,2,4-triazol-3-yl)ethyl]carbamoylamino]-4-(trifluoromethyl)benzoate], the mortality at 12.5 ppm in the assay on Myzus persicae (setting [1]) was no less than 80%. In addition, the percent effect (mortality or growth inhibition) at 200 ppm with Plutella xylostella is no less than 80%. Besides, the percent control (mortality, anti-feedant effect or growth inhibition) at 200 ppm with Chilo suppressalis was no less than 80%.
As for `CC(C)Oc1cc(NC(=O)N[C@@H](C)c2ncnn2-c2ncccn2)c(F)cc1Br` [Example P221, 1-(4-bromo-2-fluoro-5-isopropoxy-phenyl)-3-[(1S)-1-(2-pyrimidin-2-yl-1,2,4-triazol-3-yl)ethyl]urea], the mortality at 12.5 ppm in the assay on Myzus persicae (setting [1]) was no less than 80%. For the same compound, the percent effect (mortality or growth inhibition) at 200 ppm in the assay with Plutella xylostella was no less than 80%. Besides, the percent control (mortality, anti-feedant effect or growth inhibition) at 200 ppm in the assay on Chilo suppressalis is no less than 80%.
`CCCOc1cc(NC(=O)N[C@@H](C)c2ncnn2-c2ncccn2)c(F)cc1Br` [Example P231, 1-(4-bromo-2-fluoro-5-propoxy-phenyl)-3-[(1S)-1-(2-pyrimidin-2-yl-1,2,4-triazol-3-yl)ethyl]urea]: the mortality at 12.5 ppm in the assay with Myzus persicae (setting [1]) is no less than 80%. In addition, the percent effect (mortality or growth inhibition) at 200 ppm in the assay with Plutella xylostella was no less than 80%.
Take `C[C@H](NC(=O)Nc1cc(Oc2ccc(C#N)cn2)c(Cl)cc1Cl)c1ncnn1-c1ncccn1` [Example P274, 1-[2,4-dichloro-5-[(5-cyano-2-pyridyl)oxy]phenyl]-3-[(1S)-1-(2-pyrimidin-2-yl-1,2,4-triazol-3-yl)ethyl]urea]: the mortality at 12.5 ppm in the assay on Myzus persicae (setting [1]) is no less than 80%. Further, the percent effect (mortality or growth inhibition) at 200 ppm in the assay on Plutella xylostella is no less than 80%. For the same compound, the percent control (mortality, anti-feedant effect or growth inhibition) at 200 ppm with Chilo suppressalis was no less than 80%.
As to `C[C@H](NC(=O)Nc1cc(Br)c(Cl)cc1F)c1ncnn1-c1ncccn1` [Example P300, 1-(5-bromo-4-chloro-2-fluoro-phenyl)-3-[(1S)-1-(2-pyrimidin-2-yl-1,2,4-triazol-3-yl)ethyl]urea], the percent control (mortality, anti-feedant effect or growth inhibition) at 200 ppm in the assay with Spodoptera littoralis and in the assay with Chilo suppressalis was no less than 80% in each case. Besides, in the assay with Plutella xylostella, the percent effect (mortality or growth inhibition) at 200 ppm was no less than 80%.
Take `COc1cc(Cl)c(NC(=O)N[C@@H](C)c2ncnn2-c2ncccn2)cc1OC` [Example P304, 1-(2-chloro-4,5-dimethoxy-phenyl)-3-[(1S)-1-(2-pyrimidin-2-yl-1,2,4-triazol-3-yl)ethyl]urea]: the mortality at 12.5 ppm in the assay on Myzus persicae (setting [1]) is no less than 80%. Also, in the assay on Plutella xylostella, the percent effect (mortality or growth inhibition) at 200 ppm is no less than 80%.
Regarding `C[C@H](NC(=O)Nc1cc(F)c(Br)cc1Cl)c1ncnn1-c1ncccn1` [Example P314, 1-(4-bromo-2-chloro-5-fluoro-phenyl)-3-[(1S)-1-(2-pyrimidin-2-yl-1,2,4-triazol-3-yl)ethyl]urea], the percent control (mortality, anti-feedant effect or growth inhibition) at 200 ppm in the assay on Spodoptera littoralis and with Chilo suppressalis was no less than 80% throughout. For the same compound, the percent effect (mortality or growth inhibition) at 200 ppm with Plutella xylostella was no less than 80%.
With `COC(=O)c1cc(NC(=O)N[C@@H](C)c2ncnn2-c2ncccn2)c(C)cc1C` [Example P315, methyl 2,4-dimethyl-5-[[(1S)-1-(2-pyrimidin-2-yl-1,2,4-triazol-3-yl)ethyl]carbamoylamino]benzoate], the mortality at 12.5 ppm with Myzus persicae (setting [1]) is no less than 80%.
Turning to `C[C@H](NC(=O)Nc1cc(F)c(C(F)(F)F)cc1F)c1ncnn1-c1ncccn1` [Example P332, 1-[2,5-difluoro-4-(trifluoromethyl)phenyl]-3-[(1S)-1-(2-pyrimidin-2-yl-1,2,4-triazol-3-yl)ethyl]urea], in the assay on Myzus persicae (setting [1]), the mortality at 12.5 ppm was no less than 80%. Also, the percent control (mortality, anti-feedant effect or growth inhibition) at 200 ppm in the assay on Spodoptera littoralis and in the assay on Chilo suppressalis was no less than 80% throughout.
As to `COc1cc(NC(=O)N[C@@H](C)c2ncnn2-c2ncccn2)c(Cl)cc1Br` [Example P351, 1-(4-bromo-2-chloro-5-methoxy-phenyl)-3-[(1S)-1-(2-pyrimidin-2-yl-1,2,4-triazol-3-yl)ethyl]urea], the percent control (mortality, anti-feedant effect or growth inhibition) at 200 ppm with Spodoptera littoralis and in the assay with Chilo suppressalis was no less than 80% each time. Besides, the percent effect (mortality or growth inhibition) at 200 ppm in the assay with Plutella xylostella was no less than 80%.
On to `COc1cc(NC(=O)N[C@@H](C)c2ncnn2-c2ncccn2)c(C2CC2)cc1Cl` [Example P355, 1-(4-chloro-2-cyclopropyl-5-methoxy-phenyl)-3-[(1S)-1-(2-pyrimidin-2-yl-1,2,4-triazol-3-yl)ethyl]urea], for which the mortality at 12.5 ppm with Myzus persicae (setting [1]) was no less than 80%. In the assay on Chilo suppressalis, the percent control (mortality, anti-feedant effect or growth inhibition) at 200 ppm was no less than 80%.
On to `CSc1cc(Cl)c(C(F)(F)F)cc1NC(=O)N[C@@H](C)c1ncnn1-c1ncccn1` [Example P360, 1-[4-chloro-2-methylsulfanyl-5-(trifluoromethyl)phenyl]-3-[(1S)-1-(2-pyrimidin-2-yl-1,2,4-triazol-3-yl)ethyl]urea], for which, in the assay with Myzus persicae (setting [1]), the mortality at 12.5 ppm is no less than 80%. Also, the percent control (mortality, anti-feedant effect or growth inhibition) at 200 ppm with Spodoptera littoralis and in the assay on Chilo suppressalis was no less than 80% each time.
For the compound `Cc1cc(Br)c(F)cc1NC(=O)N[C@@H](C)c1ncnn1-c1ncccn1` [Example P367, 1-(4-bromo-5-fluoro-2-methyl-phenyl)-3-[(1S)-1-(2-pyrimidin-2-yl-1,2,4-triazol-3-yl)ethyl]urea], the percent control (mortality, anti-feedant effect or growth inhibition) at 200 ppm in the assay on Spodoptera littoralis and in the assay with Chilo suppressalis was no less than 80% throughout. The percent effect (mortality or growth inhibition) at 200 ppm in the assay on Plutella xylostella is no less than 80%.
For the compound `C[C@H](NC(=O)Nc1cc(Br)c(F)cc1Cl)c1ncnn1-c1ncccn1` [Example P388, 1-(5-bromo-2-chloro-4-fluoro-phenyl)-3-[(1S)-1-(2-pyrimidin-2-yl-1,2,4-triazol-3-yl)ethyl]urea], the percent control (mortality, anti-feedant effect or growth inhibition) at 200 ppm with Spodoptera littoralis and in the assay on Chilo suppressalis was no less than 80% in each case. Further, in the assay on Plutella xylostella, the percent effect (mortality or growth inhibition) at 200 ppm was no less than 80%.
With `CNC(=O)c1cnc(-n2ncnc2[C@H](C)NC(=O)Nc2cc(C(F)(F)F)c(Cl)cc2Cl)s1` [Example P395, 2-[5-[(1S)-1-[[2,4-dichloro-5-(trifluoromethyl)phenyl]carbamoyl-amino]ethyl]-1,2,4-triazol-1-yl]-N-methyl-thiazole-5-carboxamide], the percent control (mortality, anti-feedant effect or growth inhibition) at 200 ppm in the assay with Spodoptera littoralis and with Chilo suppressalis was no less than 80% throughout. In addition, the percent effect (mortality or growth inhibition) at 200 ppm with Plutella xylostella was no less than 80%.
Regarding `C[C@H](NC(=O)Nc1cc(OC(F)(F)C(F)F)c(Cl)cc1Cl)c1ncnn1-c1ncc(C(=O)N(C)C)s1` [Example P396, 2-[5-[(1S)-1-[[2,4-dichloro-5-(1,1,2,2-tetrafluoroethoxy)phenyl]carbamoyl-amino]ethyl]-1,2,4-triazol-1-yl]-N,N-dimethyl-thiazole-5-carboxamide], the percent control (mortality, anti-feedant effect or growth inhibition) at 200 ppm in the assay on Spodoptera littoralis and with Chilo suppressalis was no less than 80% throughout. Also, the percent effect (mortality or growth inhibition) at 200 ppm in the assay with Plutella xylostella is no less than 80%.
